Patent publication US20230416248A1, “COMPOUNDS AND USES THEREOF” (Foghorn Therapeutics Inc., priority 2020, published 2023)

Experiments:
[1] = target: T1, BRM (Homo sapiens, UniProt P51531); assay: ATPase catalytic activity of BRM, ADP-Glo in vitro biochemical assay; conditions: for IC50: ADP-Glo ATPase assay, 30 nM BRM, 400 μM ATP; for Ratio* (BRG1 IC50 (μM) divided by BRM IC50 (μM)): selectivity ratio BRG1 IC50 / BRM IC50
T1 construct: made in house; host or cells: High Five insect cells
Summary of the method: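 ADP-Glo luminescence, after depletion of leftover ATP and conversion of ADP, reported the activity. The 1 h room-temperature reaction held 400 μM ATP, 20 nM salmon sperm DNA and 30 nM BRM in 20 mM Tris pH 8, 20 mM MgCl2, 50 mM NaCl, 0.1% Tween-20, 1 mM DTT.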

[2] = target: T2, BRG-1 (Homo sapiens, UniProt P51532); assay: ATPase catalytic activity of BRG-1, ADP-Glo in vitro biochemical assay; conditions: ADP-Glo ATPase assay, 30 nM BRG-1, 400 μM ATP; read-out: BRG1 IC50
T2 construct: made in house; host or cells: High Five insect cells
T2 sequence (P51532 whole entry): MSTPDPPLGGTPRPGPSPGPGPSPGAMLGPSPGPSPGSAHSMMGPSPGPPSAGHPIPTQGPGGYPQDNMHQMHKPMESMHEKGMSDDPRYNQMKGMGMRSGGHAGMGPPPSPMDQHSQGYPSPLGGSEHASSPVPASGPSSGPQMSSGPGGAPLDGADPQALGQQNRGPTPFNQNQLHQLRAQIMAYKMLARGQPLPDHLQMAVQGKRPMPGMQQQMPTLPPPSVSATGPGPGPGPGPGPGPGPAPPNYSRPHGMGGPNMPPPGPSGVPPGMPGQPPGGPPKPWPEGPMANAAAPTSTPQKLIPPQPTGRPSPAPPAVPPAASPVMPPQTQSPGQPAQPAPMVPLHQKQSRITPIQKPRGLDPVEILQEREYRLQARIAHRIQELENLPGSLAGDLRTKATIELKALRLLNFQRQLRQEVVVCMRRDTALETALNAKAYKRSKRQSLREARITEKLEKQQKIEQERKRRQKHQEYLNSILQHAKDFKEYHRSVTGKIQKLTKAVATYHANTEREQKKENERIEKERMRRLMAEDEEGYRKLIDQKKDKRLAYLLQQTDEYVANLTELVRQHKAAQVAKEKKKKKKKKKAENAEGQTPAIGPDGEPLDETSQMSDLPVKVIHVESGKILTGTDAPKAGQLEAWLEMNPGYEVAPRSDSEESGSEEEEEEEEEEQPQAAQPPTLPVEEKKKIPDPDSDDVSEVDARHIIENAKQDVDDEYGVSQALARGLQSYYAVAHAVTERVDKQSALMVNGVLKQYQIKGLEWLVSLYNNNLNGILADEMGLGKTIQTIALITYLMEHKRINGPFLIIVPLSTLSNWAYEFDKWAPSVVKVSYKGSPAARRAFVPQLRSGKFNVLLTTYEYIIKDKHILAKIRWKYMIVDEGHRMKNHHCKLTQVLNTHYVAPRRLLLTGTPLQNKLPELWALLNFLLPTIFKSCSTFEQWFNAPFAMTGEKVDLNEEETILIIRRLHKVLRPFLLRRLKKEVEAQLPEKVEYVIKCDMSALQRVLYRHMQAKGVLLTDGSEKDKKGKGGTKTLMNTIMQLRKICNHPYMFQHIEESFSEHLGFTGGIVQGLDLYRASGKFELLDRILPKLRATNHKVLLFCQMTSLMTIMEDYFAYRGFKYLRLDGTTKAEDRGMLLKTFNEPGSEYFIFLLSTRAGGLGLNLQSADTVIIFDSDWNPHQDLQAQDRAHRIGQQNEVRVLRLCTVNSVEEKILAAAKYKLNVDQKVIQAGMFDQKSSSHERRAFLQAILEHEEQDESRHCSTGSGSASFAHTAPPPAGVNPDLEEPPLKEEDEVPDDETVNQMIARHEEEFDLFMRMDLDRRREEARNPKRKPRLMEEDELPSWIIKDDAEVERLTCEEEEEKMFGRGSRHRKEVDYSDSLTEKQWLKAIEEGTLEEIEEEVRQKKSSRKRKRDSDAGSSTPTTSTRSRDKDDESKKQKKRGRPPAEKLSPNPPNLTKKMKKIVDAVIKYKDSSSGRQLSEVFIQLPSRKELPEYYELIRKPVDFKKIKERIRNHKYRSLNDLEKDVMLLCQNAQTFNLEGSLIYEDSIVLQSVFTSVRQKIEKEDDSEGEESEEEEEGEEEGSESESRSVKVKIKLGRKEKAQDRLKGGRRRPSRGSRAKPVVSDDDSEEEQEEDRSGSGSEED
Method: The ATPase catalytic activity of BRM or BRG-1 was measured by an in vitro biochemical assay using ADP-Glo™ (Promega, V9102). The ADP-Glo™ kinase assay is performed in two steps once the reaction is complete. The first step is to deplete any unconsumed ATP in the reaction. The second step is to convert the reaction product ADP to ATP, which will be utilized by the luciferase to generate luminesce and be detected by a luminescence reader, such as Envision.
Then, following addition of 5 μL of ADP-Glo™ Reagent provided in the kit, the reaction incubates at room temperature for 40 minutes. Then, 10 μL of Kinase Detection Reagent provided in the kit is added to convert ADP to ATP, and the reaction incubates at room temperature for 60 minutes. Finally, luminescence measurement is collected with a plate-reading luminometer, such as Envision.

T1 sequence (P51531 whole entry): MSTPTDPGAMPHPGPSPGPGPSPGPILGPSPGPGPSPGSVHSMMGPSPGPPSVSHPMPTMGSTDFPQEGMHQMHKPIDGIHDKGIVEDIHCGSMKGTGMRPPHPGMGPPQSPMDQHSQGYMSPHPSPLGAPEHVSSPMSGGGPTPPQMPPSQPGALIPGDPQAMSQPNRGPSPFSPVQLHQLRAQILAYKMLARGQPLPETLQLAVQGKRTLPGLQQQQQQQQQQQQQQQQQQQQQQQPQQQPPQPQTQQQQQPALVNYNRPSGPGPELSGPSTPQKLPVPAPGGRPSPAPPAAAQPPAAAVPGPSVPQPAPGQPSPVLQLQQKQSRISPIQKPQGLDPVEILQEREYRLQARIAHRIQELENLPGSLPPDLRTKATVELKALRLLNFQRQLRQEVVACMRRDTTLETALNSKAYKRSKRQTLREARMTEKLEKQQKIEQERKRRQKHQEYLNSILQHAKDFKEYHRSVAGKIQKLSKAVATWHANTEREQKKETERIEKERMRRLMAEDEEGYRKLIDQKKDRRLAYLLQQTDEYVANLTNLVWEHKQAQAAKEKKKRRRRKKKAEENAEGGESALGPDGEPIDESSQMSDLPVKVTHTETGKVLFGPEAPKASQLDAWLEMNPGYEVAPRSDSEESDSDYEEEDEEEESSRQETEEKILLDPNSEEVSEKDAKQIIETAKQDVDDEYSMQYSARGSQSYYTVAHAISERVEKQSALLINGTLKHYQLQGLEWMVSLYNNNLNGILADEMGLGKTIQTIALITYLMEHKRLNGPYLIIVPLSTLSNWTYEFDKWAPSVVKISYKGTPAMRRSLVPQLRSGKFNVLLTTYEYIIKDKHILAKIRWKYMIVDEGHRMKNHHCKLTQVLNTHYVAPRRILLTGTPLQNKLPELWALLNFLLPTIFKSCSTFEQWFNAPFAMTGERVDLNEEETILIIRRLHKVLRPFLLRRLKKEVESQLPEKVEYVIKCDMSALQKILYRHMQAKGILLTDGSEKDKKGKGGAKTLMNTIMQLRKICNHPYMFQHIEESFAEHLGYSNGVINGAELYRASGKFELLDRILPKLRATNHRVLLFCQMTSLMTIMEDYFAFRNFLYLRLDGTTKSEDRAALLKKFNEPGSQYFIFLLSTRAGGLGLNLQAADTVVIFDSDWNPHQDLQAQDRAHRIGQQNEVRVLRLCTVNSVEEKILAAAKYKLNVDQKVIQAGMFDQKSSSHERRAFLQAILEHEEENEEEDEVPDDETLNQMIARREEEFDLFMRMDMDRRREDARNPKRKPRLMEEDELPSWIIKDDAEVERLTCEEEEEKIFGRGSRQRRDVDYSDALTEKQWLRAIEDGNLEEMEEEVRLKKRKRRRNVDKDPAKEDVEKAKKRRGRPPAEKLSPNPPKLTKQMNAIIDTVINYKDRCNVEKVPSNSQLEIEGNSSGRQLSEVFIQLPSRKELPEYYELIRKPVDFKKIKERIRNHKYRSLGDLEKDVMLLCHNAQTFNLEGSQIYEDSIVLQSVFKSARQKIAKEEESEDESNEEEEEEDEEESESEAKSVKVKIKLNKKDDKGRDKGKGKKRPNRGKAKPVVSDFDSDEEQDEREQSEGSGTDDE

Row | SMILES | IC50 [1] [µM] | Ratio* (BRG1 IC50 (μM) divided by BRM IC50 (μM)) [1] | IC50 [2] [µM]
1 | CO[C@H]1C[C@H](c2cccc(-c3ccc4cnc(CNC(=O)c5ccc6c(c5)S(=O)(=O)CCOC6)cc4n3)n2)C1 [Compound 106] | 0.0761 | 8.76 | 0.667
2 | CN(c1ccccn1)c1ccc2cnc(CNC(=O)c3ccc4c(c3)S(=O)(=O)CCOC4)cc2n1 [Compound 108] | 0.672 | 7.43 | 5
3 | COCCN1CCCc2ccc(-c3ccc4cnc(CNC(=O)c5ccc6c(c5)S(=O)(=O)CCOC6)cc4n3)nc21 [Compound 109] | 0.0169 | 7.52 | 0.127
4 | C[C@@H]1CN(c2nc(-c3ccc4cnc(CNC(=O)c5ccc6c(c5)S(=O)(=O)CCOC6)cc4n3)ccc2F)C[C@H](C)O1 [Compound 111] | 0.006 | 4.58 | 0.0274
5 | C[C@@H]1CN(c2cccc(-c3ccc4cnc(CNC(=O)c5ccc6c(c5)S(=O)(=O)CCOC6)cc4n3)c2)C[C@H](C)O1 [Compound 112] | 0.0129 | 13.71 | 0.176
6 | CN(c1cccc(-c2ccc3cnc(CNC(=O)c4ccc5c(c4)S(=O)(=O)CCOC5)cc3n2)n1)[C@@H]1CCOC1 [Compound 116] | 0.0226 | 10.43 | 0.236
7 | CN(c1cccc(-c2ccc3cnc(CNC(=O)c4ccc5c(c4)S(=O)(=O)CCOC5)cc3n2)n1)[C@H]1CCOC1 [Compound 117] | 0.0446 | 7.01 | 0.313
8 | COc1cc(C(F)F)ccc1-c1ccc2cnc(CNC(=O)c3ccc4c(c3)S(=O)(=O)CCOC4)cc2n1 [Compound 118] | 0.0249 | 10.11 | 0.252
9 | O=C(NCc1cc2nc(-c3ccc4c(n3)N(CC(F)F)CC4)ccc2cn1)c1ccc2c(c1)S(=O)(=O)CCOC2 [Compound 119] | 0.04 | 5.53 | 0.221
10 | C[C@@H]1CN(c2cccc(-c3ccc4cnc([C@@H](C)NC(=O)c5ccc6c(c5)S(=O)(=O)CCOC6)cc4n3)n2)C[C@H](C)O1 [Compound 121] | 0.0867 | 5.73 | 0.497
11 | C[C@@H]1CN(c2cccc(-c3ccc4cnc([C@H](C)NC(=O)c5ccc6c(c5)S(=O)(=O)CCOC6)cc4n3)n2)C[C@H](C)O1 [Compound 122] | 0.0103 | 6.56 | 0.0677
12 | COCCCN(C)c1cccc(-c2ccc3cnc(CNC(=O)c4ccc5c(c4)S(=O)(=O)CCOC5)cc3n2)n1 [Compound 125] | 0.0183 | 12.26 | 0.224
13 | CC(F)(F)COc1cccc(-c2ccc3cnc(CNC(=O)c4ccc5c(c4)S(=O)(=O)CCOC5)cc3n2)n1 [Compound 126] | 0.0335 | 8.80 | 0.295
14 | O=C(NCc1cc2nc(-c3cccc4c3CCCN4CC(F)F)ccc2cn1)c1ccc2c(c1)S(=O)(=O)CCOC2 [Compound 127] | 0.846 | 4.79 | 4.05
15 | Cc1cc2c(-c3ccc4cnc(CNC(=O)c5ccc(Cl)c(S(C)(=O)=O)c5)cc4n3)cccc2n1C [Compound 129] | 0.0479 | 11.91 | 0.57
16 | Cc1cc2c(-c3ccc4cnc(CNC(=O)c5ccc6c(c5)S(=O)(=O)CCOC6)cc4n3)cccc2n1C [Compound 130] | 0.0107 | 9.77 | 0.104
17 | O=C(NCc1cc2nc(-c3cccc4c3OCCN4CC(F)F)ccc2cn1)c1ccc2c(c1)S(=O)(=O)CCOC2 [Compound 131] | 0.0716 | 7.12 | 0.51
18 | COc1nn([C@H]2C[C@@H](F)C2)cc1-c1ccc2cnc(CNC(=O)c3ccc4c(c3)S(=O)(=O)CCOC4)cc2c1 [Compound 134] | 0.186 | 13.28 | 2.46
19 | COCCOc1cccc(-c2ccc3cnc(CNC(=O)c4ccc5c(c4)S(=O)(=O)CCOC5)cc3n2)c1 [Compound 135] | 0.112 | 9.48 | 1.06
20 | Cn1ccc2ccc(-c3ccc4cnc(CNC(=O)c5ccc6c(c5)S(=O)(=O)CCOC6)cc4n3)nc21 [Compound 136] | 0.0334 | 7.15 | 0.239
21 | O=C(NCc1cc2nc(-c3ccc(F)c(OC(F)F)n3)ccc2cn1)c1ccc2c(c1)S(=O)(=O)CCOC2 [Compound 137] | 0.0225 | 16.99 | 0.382
22 | O=C(NCc1cc2nc(-c3ccc4c(n3)OCC4)ccc2cn1)c1ccc2c(c1)S(=O)(=O)CCOC2 [Compound 139] | 0.432 | 4.81 | 2.07
23 | O=C(NCc1cc2nc(-c3ccc4ccn(CC(F)F)c4n3)ccc2cn1)c1ccc2c(c1)S(=O)(=O)CCOC2 [Compound 140] | 0.0352 | 6.92 | 0.243
24 | C[C@@H]1CN(c2cccc(-c3cnc4cnc(CNC(=O)c5ccc6c(c5)S(=O)(=O)CCOC6)cc4n3)c2)C[C@H](C)O1 [Compound 141] | 0.013 | 12.97 | 0.169
25 | C[C@@H]1CN(c2cccc(-c3ccc4cnc(CNC(=O)c5cc(Cl)c6c(c5)S(=O)(=O)CCOC6)cc4n3)n2)C[C@H](C)O1 [Compound 143] | 0.0076 | 14.36 | 0.108

Second part, the molecule after the results:

Row | IC50 [1] [µM] | Ratio* (BRG1 IC50 (μM) divided by BRM IC50 (μM)) [1] | IC50 [2] [µM] | SMILES
26 | 0.0699 | 13.41 | 0.937 | COCCN(C)c1cccc(-c2ccc3cnc(CNC(=O)c4cnc(C(F)F)c(S(C)(=O)=O)c4)cc3n2)n1 [Compound 105]
27 | 0.0056 | 9.98 | 0.056 | Cc1ncc(C(=O)NCc2cc3nc(-c4cccc(N5C[C@@H](C)O[C@@H](C)C5)n4)ccc3cn2)cc1S(C)(=O)=O [Compound 107]
28 | 0.0209 | 19.51 | 0.407 | COCCN(C)c1cccc(-c2ccc3cnc(CNC(=O)c4ccc(C(F)F)c(S(C)(=O)=O)c4)cc3n2)n1 [Compound 110]
29 | 0.0595 | 9.79 | 0.583 | CO[C@H]1C[C@@H](c2cccc(-c3ccc4cnc(CNC(=O)c5ccc6c(c5)S(=O)(=O)CCOC6)cc4n3)n2)C1 [Compound 113]
30 | 0.0708 | 22.76 | 1.61 | COCc1c(Cl)cc(C(=O)NCc2cc3nc(-c4cccc(N5C[C@@H](C)O[C@@H](C)C5)n4)ccc3cn2)cc1S(C)(=O)=O [Compound 114]
31 | 0.0235 | 10.05 | 0.236 | CN(CC(F)F)c1cccc(-c2ccc3cnc(CNC(=O)c4ccc5c(c4)S(=O)(=O)CCOC5)cc3n2)n1 [Compound 115]
32 | 0.0447 | 10.48 | 0.469 | O=C(NCc1cc2nc(-c3cccc(C4(CF)CC4)n3)ccc2cn1)c1ccc2c(c1)S(=O)(=O)CCOC2 [Compound 120]
33 | 0.0232 | 12.51 | 0.29 | CS(=O)(=O)c1cc(C(=O)NCc2cc3nc(-c4cccc(N5CC[C@@H]6OCC[C@H]6C5)n4)ccc3cn2)ccc1C(F)F [Compound 123]
34 | 0.0378 | 14.29 | 0.541 | CS(=O)(=O)c1cc(C(=O)NCc2cc3nc(-c4cccc(N5CC[C@H]6OCC[C@@H]6C5)n4)ccc3cn2)ccc1C(F)F [Compound 124]
35 | 0.0426 | 10.99 | 0.468 | O=C(NCc1cc2nc(-c3cccc(N4CC5(C4)CC5(F)F)n3)ccc2cn1)c1ccc2c(c1)S(=O)(=O)CCOC2 [Compound 128]
36 | 0.0125 | 16.30 | 0.204 | C[C@@H]1CN(c2cccc(-c3ccc4cnc(CNC(=O)c5cnc(C(F)F)c(S(C)(=O)=O)c5)cc4n3)n2)C[C@H](C)O1 [Compound 132]
37 | 0.0615 | 7.91 | 0.487 | O=C(NCc1cc2nc(-c3cccc(C4CCOCC4)n3)ccc2cn1)c1ccc2c(c1)S(=O)(=O)CCOC2 [Compound 133]
38 | 0.0108 | 4.70 | 0.0507 | C[C@@H]1CN(c2cccc(-c3ccc4cnc(CNC(=O)c5ccc(CC(F)F)c(S(C)(=O)=O)c5)cc4n3)n2)C[C@H](C)O1 [Compound 138]
39 | 0.23 | 11.55 | 2.66 | O=C(NCc1cc2nc(-c3cccc(C4(F)COC4)n3)ccc2cn1)c1ccc2c(c1)S(=O)(=O)CCOC2 [Compound 142]
40 | 0.147 | 9.21 | 1.35 | CN1CCN(c2cccc(-c3ccc4cnc(CNC(=O)c5ccc6c(c5)S(=O)(=O)CCOC6)cc4n3)n2)CC1 [Compound 144]
